Source: patent US10238667B2, “Vitamin D receptor/SMAD genomic circuit gates fibrotic response” (Salk Institute for Biological Studies, priority 2013, dated 2019)

Tests used:
[1] = system: SMAD3; experiment: ChIP-qPCR time course of SMAD3 binding at COL1A1 regulatory region #1 in LX-2 cells; format: cell-based, human
Text: FIGS. 14A-14D. VDR/SMAD Genomic Circuit. […] Data represents the mean±SEM of at least three independent experiments performed in triplicate. Asterisks denote statistically significant differences compared to calcipotriol-induced VDR occupancy or TGFβ1-induced SMAD3 occupancy of corresponding time point (Student's unpaired t-test, *p<0.05, **p<0.01). […] Data represents the mean±SEM of at least three independent experiments performed in triplicate. (D) Model depicting proposed VDR/SMAD genomic circuit controlling pro-fibrogenic responses in HSCs.
Cells were then harvested for ChIP assay. The experimental procedure for ChIP was as previously described (Barish et al., 2010). Briefly, after fixation, nuclei from LX-2 cells were isolated, lysed and sheared with a Diagenode Bioruptor to yield DNA fragment sizes of 200-1000 base pairs followed by immunoprecipitation using antibodies listed below: normal rabbit IgG (Santa Cruz, sc-2027), VDR (Santa Cruz, sc-1008), SMAD3 (Abcam, ab28379) and histone H3 (Abcam, ab1791). For ChIP-Re-ChIP, after first ChIP, the immunoprecipitated DNA-protein complex was eluted from beads using 10 mM DTT, diluted 100-fold then re-immunoprecipitated with a second antibody, re-ChIP.
Specifically, ChIP-qPCR was employed to monitor binding of VDR and SMAD3 to the cis-regulatory region of COL1A1 at multiple time points (0, 1, 2, 4, 6, 16 hours).

[2] = system: primary mouse HSCs; experiment: Fibrotic gene expression in primary mouse HSCs; format: cell-based; conditions: primary mouse HSCs (data not shown)
Method: HSCs were isolated from 10-week old male C57BL/6J mice and Wistar rats by in situ pronase, collagenase perfusion and single-step Histogenz gradient as previously reported (Hendriks et al., 1985; Knook et al., 1982). Isolated HSCs were cultured in DMEM (Mediatech) containing 20% FBS (Hyclone) on 6-well plates for 40 hours prior to end-point assays.
(§1) LX-2 cells, a generous gift from Professor Scott Friedman, Mount Sinai School of Medicine, New York, N.Y., were cultured as described previously (Xu et al., 2005). […] For luciferase assays, DNA transfections were performed using Fugene 6 (Roche) following the manufacturer's instructions. […] RT-qPCR, total RNA was purified following TRIzol extraction and treated with DNaseI (Invitrogen). cDNA synthesis was carried out with iScript RT Supermix (Biorad). Quantitative PCR was performed in technical triplicates using SYBR Green reagent (Biorad). The relative standard curve method was used for quantitation (Biorad). Expression levels were calculated by normalization to either Gapdh (mouse) or U36B4 (human) quantities.

[3] = system: SMAD3; experiment: Immunoprecipitation/Western blot of total and phosphorylated SMAD3 in LX-2 cells; format: cell-based, human; conditions: TGFβ1 1 ng/ml +/- calcipotriol 100 nM
Method: Nuclear extracts were immunoprecipitated using a SMAD2/3 antibody prior to Western blot analysis. Asterisks denote non-specific bands.
The whole cell lysates were obtained through RIPA buffer lysis while isolation of nuclear extract was performed as previously reported (Ding et al., 2008). Total and nuclear SMAD3 were immunoprecipitated from LX-2 whole cell and nuclear extracts, respectively, using anti-SMAD2/3 antibody (Santa Cruz, sc-133098) followed by SDS-PAGE and western blot detection by anti-SMAD3 (Cell Signaling, 9523) and anti-pSMAD3 (Cell Signaling, 9520) specific antibodies.

[4] = system: C57BL/6J mice; experiment: CCl4 model of liver injury and fibrosis; format: in vivo, mouse
Method: as §1
8 week-old male C57BL/6J mice were IP injected with 0.5 ml/kg body weight CCl4 (1:50 v/v in corn oil from Sigma) or vehicle (DMSO in corn oil) three times a week for 4 weeks. […] The animals were terminated 72 hours after the final CCl4 injection and whole livers and serum were collected for histological, cytological, biochemical and molecular analyses.
5 μm sections of formalin-fixed liver were stained following standard H&E and Sirius Red methods and reviewed by a pathologist who was blinded to the experimental conditions. Fibrosis was scored using the Ishak modified histological activity index (HAI) scoring system. Fibrosis was also quantified using Image J software on 10 non-contiguous Sirius Red stained sections. All images were obtained using a high-resolution Leica DFC420 digital camera mounted on an Olympus microscope equipped with ×4/0.13, ×10/0.30, ×20/0.50 and ×40/0.75 UplanFL N plan objective lenses and processed with the Leica Application Suite. Hepatic hydroxyproline content was measured using a commercial colorimetric assay from Biovision (K555-100).

[5] = system: rat HSCs; experiment: Microarray of culture-induced activation of HSCs; format: cell-based; conditions: 3 days culture on plastic, 10 nM 1,25(OH)2D3
Method: VDR Signaling Suppresses TGFβ-induced Pro-Fibrotic Genes. (A) Heat map comparing 519 differentially expressed genes in freshly isolated rat HSCs (quiescent HSCs, Q-HSCs), activated HSCs (A-HSCs, 3 days culture on plastic) and cells cultures in the presence of 10 nM 1,25(OH)2D3 (A-HSCs+1,25(OH)2D3). Euclidean clustering of both rows and columns using log2 transformed microarray expression data, n=2 per treatment group. […] Data represents the mean±SEM of at least three independent experiments performed in triplicate. Asterisks denote statistically significant differences (Student's unpaired t-test, *p<0.05, **p<0.01). HSCs were isolated from 10-week old male C57BL/6J mice and Wistar rats by in situ pronase, collagenase perfusion and single-step Histogenz gradient as previously reported (Hendriks et al., 1985; Knook et al., 1982). Isolated HSCs were cultured in DMEM (Mediatech) containing 20% FBS (Hyclone) on 6-well plates for 40 hours prior to end-point assays. Total RNA from primary rat or mouse HSCs was isolated using the RNeasy mini kit (Qiagen) according to standard protocols. RNA integrity and quality was assessed using the Agilent Bioanalyzer and prepared for hybridization to Illumina rat or mouse gene expression arrays according to standard Illumina protocols. Feature extraction was performed using the Illumina GenomeStudio software. […]

Row | Compound | SMAD3 recruitment reduced ([1]; after 4 hours, TGFβ1 + calcipotriol vs TGFβ1) [%] | time of maximum binding of SMAD3 post-TGFβ1 treatment ([1]; in the presence of calcipotriol 100 nM, TGFβ1 alone maximal at 4 hours) [h] | fibrotic gene expression [2] | TGFβ1-induced phosphorylation and subsequent nuclear translocation of SMAD3 [3] | fibrosis (Sirius red staining, hepatic hydroxyproline content, histological fibrotic scoring) ([4]; CCl4 0.5 ml/kg IP 3 times per week, 4 weeks, calcipotriol 20 μg/kg oral gavage co-treatment) | serum calcium concentration ([4]; calcipotriol 20 μg/kg oral gavage, 4 weeks) | down-regulation of fibrotic marker genes Col1a1, Tgfb1 and Timp1 ([4]; hepatic gene expression, RT-qPCR, CCl4/calcipotriol co-treated vs CCl4) | fibrogenic response in liver ([4]; pre-treated with calcipotriol for 5 weeks prior to CCl4/calcipotriol co-treatment) | culture-induced activation of HSCs (transcriptome) [5]
1 | C=C1/C(=C\C=C2/CCC[C@]3(C)[C@@H]([C@H](C)/C=C/[C@@H](O)C4CC4)CC[C@@H]23)C[C@@H](O)C[C@@H]1O [calcipotriol, 1α,24-(OH)2-24-cyclopropyl-D3] | 70 | 1 | potently repressed | did not significantly affect | significant reduction in fibrosis | not significantly altered | 50-70% | nearly completely abrogated | –
2 | C=C1/C(=C\C=C2/CCC[C@]3(C)C([C@H](C)CCCC(C)(C)O)CC[C@@H]23)C[C@@H](O)C[C@@H]1O (stereo partly drawn) [1,25(OH)2D3, 1α,25 dihydroxyvitamin D3] | – | – | – | – | – | – | – | – | attenuated
